Experimental data as given in US20090318389A1, “AGONISTS OF THE SPHINGOSINE-1 PHOSPHATE RECEPTOR” (PRAECIS PHARMACEUTICALS INCORPORATED, priority 2006, published 2009).

Key:
S1P-1 receptor [1] = target: T1, S1P-1 receptor (Homo sapiens, UniProt P21453); test: [33P]sphingosine 1-phosphate binding assay, membranes of transfected HEK 293 T cells; details: for IC50: binding, 2.5 pM [33P]S1P, 60 minutes, room temperature; for IC50/IC50 (S1P-3/S1P-1): selectivity for S1P-1 over S1P-3
T1 construct: expressed in transfected cells; host or cells: HEK 293 T cells (crude membranes)
Procedure: (§1) The IC50 of a compound is determined using the [^33P]sphingosine 1-phosphate binding assay, as described in Davis, M. D. et al., Sphingosine 1-Phosphate Analogs as Receptor Antagonists. J. Biol. Chem. (2005) 280:9833-9841, the entire contents of which are incorporated herein by this reference.
(§2) The ability of several of the compounds described herein to bind to the S1P-1 or S1P-3 receptor was tested as follows.
(§3) For the membrane preparation, plasmid DNA was transfected into HEK 293 T cells using the FuGENE 6 transfection protocol Briefly, subconfluent monolayers of HEK 293 T cells were transfected with the DNA mixture containing FuGENE 6 (using a 1:3 ratio). The dishes containing the cells were then placed in a tissue culture incubator (5% CO2, 37° C.). The cells were harvested 48 hours after addition of the DNA by scraping in HME buffer (in mM: 20 HEPES, 5 MgCl2, 1 EDTA, pH 7.4, 1 mM PMSF) containing 10% sucrose on ice, and disrupted using aDounce homogenizer. After centrifugation at 800×g, the supernatant was diluted with HME without sucrose and centrifuged at 17,000×g for 1 hour. This crude membrane pellet was resuspended in HME with sucrose, aliquoted, and snap-frozen by immersion in liquid nitrogen. The membranes were stored at −70° C. Protein concentration was determined spectroscopically by Bradford protein assay.
(§4) For the binding assay, [^33P]sphingosine 1-phosphate (obtained from American Radiolabeled Chemicals, Inc) was added to membranes in 200 μL in 96-well plates with assay concentrations of 2.5 pM [^33P]sphingosine 1-phosphate, 4 mg/mL BSA, 50 mM HEPES, pH 7.5, 100 mM NaCl, 5 mM MgCl2, and 5 μg of protein. Binding was performed for 60 minutes at room temperature with gentle mixing and terminated by collecting the membranes onto GF/B filter plates. After drying the filter plates for 10 minutes, 50 μL of Microscint 40 was added to each well, and filter-bound radionuclide was measured on a Packard Top Count. Nonspecific binding was defined as the amount of radioactivity remaining in the presence of excess of unlabeled S1P.

S1P-3 receptor = target: T2, S1P-3 receptor (Homo sapiens, UniProt Q99500); test: as above; details: 2.5 pM [33P]S1P, 60 minutes, room temperature
T2 construct: expressed in transfected cells; host or cells: HEK 293 T cells (crude membranes)
Procedure: as §1, §2, §3, §4

S1P-1 receptor [2] = target: T1, S1P-1 receptor; test: 35S-GTPγS binding assay (EC50, agonism); assay type: biochemical; details: 35S-GTPγS binding assay as described in WO 03/061567
Procedure: The terms “agonist” or “S1P-1 receptor agonist” as used herein include the compounds described herein which bind to and/or agonize the S1P-1 receptor. The EC50 of a compound is determined using the ^35S-GTPγS binding assay, as described in WO 03/061567, the entire contents of which are incorporated herein by reference.

T2 sequence (Q99500 whole entry): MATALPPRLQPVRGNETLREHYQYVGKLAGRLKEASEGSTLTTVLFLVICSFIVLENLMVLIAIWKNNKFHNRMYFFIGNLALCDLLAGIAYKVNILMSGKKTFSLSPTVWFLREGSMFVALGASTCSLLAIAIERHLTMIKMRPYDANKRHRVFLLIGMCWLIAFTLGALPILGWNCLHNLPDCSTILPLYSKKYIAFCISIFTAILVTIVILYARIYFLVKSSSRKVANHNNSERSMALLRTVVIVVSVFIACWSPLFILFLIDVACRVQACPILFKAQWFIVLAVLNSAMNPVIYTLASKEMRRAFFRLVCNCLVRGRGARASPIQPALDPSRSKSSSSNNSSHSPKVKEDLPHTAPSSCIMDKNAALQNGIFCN
T1 sequence (P21453 whole entry): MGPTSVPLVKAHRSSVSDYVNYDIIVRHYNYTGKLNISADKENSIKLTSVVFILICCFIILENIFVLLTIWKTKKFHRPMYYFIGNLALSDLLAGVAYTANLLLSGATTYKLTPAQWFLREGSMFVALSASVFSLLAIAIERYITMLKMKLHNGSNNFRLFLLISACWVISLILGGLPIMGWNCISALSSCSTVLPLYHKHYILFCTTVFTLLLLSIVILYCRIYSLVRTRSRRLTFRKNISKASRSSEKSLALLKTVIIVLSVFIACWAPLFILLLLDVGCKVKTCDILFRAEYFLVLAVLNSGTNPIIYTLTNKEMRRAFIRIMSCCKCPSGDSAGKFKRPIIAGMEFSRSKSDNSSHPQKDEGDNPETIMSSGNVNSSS

| Structure (SMILES) | IC50 (S1P-1 receptor [1]) | IC50/IC50 (S1P-3/S1P-1) (S1P-1 receptor [1]) | IC50 (S1P-3 receptor) | EC50 (S1P-1 receptor [2]) |
| --- | --- | --- | --- | --- |
| C[C@](N)(COP(=O)(O)O)c1ncc(-c2ccc(Sc3cccc(OCc4ccccc4)c3)cc2Cl)[nH]1 | 0.001 to 100 nM | +++ (great receptor selectivity (>1,000 fold)) | 100 to 1000 nM |  |
| C[C@](N)(COP(=O)(O)O)c1nnc(-c2ccc(Sc3cccc(O)c3)cc2Cl)s1 | 100 to 1000 nM |  | > 10000 nM |  |
| C[C@](N)(COP(=O)(O)O)c1nnc(-c2ccc(Sc3cccc(OCc4ccccc4)c3)c(C(F)(F)F)c2)s1 | 0.001 to 100 nM |  | > 10000 nM |  |
| C[C@](N)(COP(=O)(O)O)c1ncc(-c2ccc(Sc3cccc(OCc4ccccc4)c3)c(C(F)(F)F)c2)[nH]1 | 0.001 to 100 nM | +++ (great receptor selectivity (>1,000 fold)) | 1000 to 10000 nM |  |
| C[C@](N)(COP(=O)(O)O)c1nnc(-c2ccc(Sc3cccc(OCc4ccccc4)c3)cc2Cl)s1 | 0.001 to 100 nM | ++ (good receptor selectivity (>100-1,000 fold)) | 100 to 1000 nM |  |
| C[C@](N)(COP(=O)(O)O)C(=O)Nc1ccc(Sc2cccc(OCc3ccccc3)c2)cc1Cl [compound 7a] |  |  |  | 6.9 nM |
